Measurements reported in PubChem BioAssay AID179 (DTP/NCI, 2004).
Calls of active or inactive are those of the source.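 The calls were made as follows: active = compounds giving half or more protection of infected cells from virus-caused growth loss, again on retest; inactive = the rest.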

Tested on: CEM cells HIV-1 protection, formazan growth assay
Assay: NCI AIDS Antiviral Assay
Conditions: for IC50: measured here: growth of uninfected CEM cells
Method in brief: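 Protection of CEM cells against HIV-1 was scored from cell growth (soluble formazan) across five concentrations, with parallel uninfected cells. Lack of protection may reflect toxicity.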

| Structure (SMILES) | EC50 | IC50 | outcome |
| --- | --- | --- | --- |
| NC1CC(=O)c2c(Br)csc21 (stereo not drawn) | > 200 µM | 50.1 µM |  |
| CCOC(=O)NN(C(=O)OCC)C(=C(C1CCCCC1)N1CCOCC1)N(NC(=O)OCC)C(=O)OCC | 126 µM | 170 µM |  |
| O=C1NC2NC3NC(=O)NC3NC2N1 (stereo not drawn) | > 200 µM | > 200 µM |  |
| Oc1c(Br)cc(Br)cc1-c1[nH]c(Br)c(Br)c1Br | > 234 µM | 1.02 µM |  |
| C[C@@H]1CC[C@@]2(OC1)O[C@H]1C[C@H]3[C@@H]4CC[C@H]5C[C@@H](OC6OC(CO)C(OC7OC(CO)C(O)C(OC8OCC(O)C(O)C8O)C7OC7OC(CO)C(O)C(O)C7O)C(O)C6O)[C@H](O)C[C@]5(C)[C@H]4CC[C@]3(C)[C@H]1[C@@H]2C (stereo partly drawn) | > 2 µM | 1 µM |  |
| CC1(C)[C@H]2CC[C@]1(C)[C@H](OC(=O)NNC(=O)O[C@@H]1C[C@@H]3CC[C@@]1(C)C3(C)C)C2 | > 200 µM | 12.6 µM |  |
| Cc1cc(C)nc(NS(=O)(=O)c2ccc(NC(=O)c3cccn4c(=O)c5ccccc5nc34)cc2)n1 |  |  | inactive |
| CN(C)/N=C/c1cn(C)c(=O)n(C)c1=O | > 200 µM | > 200 µM |  |
| OC(C#CCN1CCCC1)(c1ccccc1)c1ccccc1.[C-]#[O+].[C-]#[O+].[C-]#[O+].[C-]#[O+].[C-]#[O+].[C-]#[O+].[Co].[Co] | > 200 µM | 7.41 µM |  |
| Clc1ccc(CNc2nc3ccccc3nc2-c2cccs2)c(Cl)c1 | > 9.77 µM | > 9.77 µM |  |
| O=C(c1ccccc1)c1nnn(Cc2ccccc2Cn2nnc(C(=O)c3ccccc3)c2C(=O)c2ccccc2)c1C(=O)c1ccccc1 | > 7.94 µM | > 7.94 µM |  |
| COC(=O)C(C)S(=O)(=O)O (stereo not drawn) | > 200 µM | > 200 µM |  |
| CC1=CCCC2C1(C)CCC(C)C2(C)Cc1cc(O)ccc1O (stereo not drawn) | > 100 µM | 12 µM |  |
| Cc1ncc([N+](=O)[O-])n1CCN(C)CCCCn1ccnc1[N+](=O)[O-] | > 200 µM | > 200 µM |  |
| Cc1cc(Cl)ccc1C(=O)c1ccc2ccccc2c1C(=O)O | > 550 µM | 126 µM |  |
| COc1ccccc1NC(=S)/N=C/c1c(O)[nH]c(=O)[nH]c1=O | > 200 µM | > 200 µM |  |
| O=c1[nH]nc(-c2ccccc2)n1/N=C/c1cccc([N+](=O)[O-])c1 | > 200 µM | 24.5 µM |  |
| CCOc1ccccc1NC(=O)C1=C(C)NC(C)=C(C(=O)Nc2ccccc2OCC)C1c1ccc2c(c1)OCO2 | > 12.9 µM | > 12.9 µM |  |
| CCCCCCCCCCCCCCCC(=O)OCC1OC(CO)(OC2OC(CO)C(O)C(O)C2O)C(O)C1O (stereo not drawn) | > 200 µM | 64.6 µM |  |
| COc1ccccc1C1C(Cl)C(=O)N1NC(=O)Cc1ccccc1 (stereo not drawn) | > 39.8 µM | > 39.8 µM |  |
| O=C1NC(N2CCOCC2)=N/C1=C\c1ccco1 | > 200 µM | > 200 µM |  |
| CN(C)/C(N)=N/C(N)=S |  |  | inactive |
| O=C1[C@@H]2C(c3ccccc3[N+](=O)[O-])=NO[C@@H]2C(=O)N1c1ccc(Cc2ccc(N3C(=O)[C@H]4C(c5ccccc5[N+](=O)[O-])=NO[C@H]4C3=O)cc2)cc1 | > 20 µM | > 20 µM |  |

| Structure (SMILES) | EC50 | IC50 | outcome |
| --- | --- | --- | --- |
| Clc1cccc(C2SCc3nc4ccccc4n32)c1Cl (stereo not drawn) |  |  | inactive |
| Cc1cc(C)c(-n2[nH]c(=O)n(C)c2=O)c(C)c1 | > 200 µM | > 200 µM |  |
| O=[N+]([O-])CC1CCCCC1O (stereo not drawn) | > 200 µM | 115 µM |  |
| c1cc2nnnn2nc1N1CCCC1 | > 200 µM | > 200 µM |  |
| CCCC[Si](CCCC)(CCCC)O[C@@H](/C=C/C(=O)OCC)[C@H](Cc1ccccc1)O[Si](CCCC)(CCCC)CCCC | > 200 µM | > 200 µM |  |
| NC(CCCCNc1ccn(C2OC(CO)C(O)C2O)c(=O)n1)C(=O)O (stereo not drawn) | > 100 µM | 5.5 µM |  |
| CC(=O)OCCCCn1cnc2c(Cl)nc(Nc3ccccc3)nc21 | > 200 µM | > 200 µM |  |
| O=C(NCCc1c(-c2ccccc2)[nH]c2ccccc12)C(F)(F)C(F)(F)F | > 200 µM | 25.7 µM |  |
| Cc1nnc(NC2=NCCO2)s1 | > 200 µM | > 200 µM |  |
| Nc1c([N+](=O)[O-])nc(Cl)c2nncn12 | > 234 µM | 120 µM |  |
| NC(CSSCC(N)C(=O)NCC(=O)O)C(=O)NCC(=O)O (stereo not drawn) | > 708 µM |  |  |
| CCOC(=O)Cn1c(=O)n(C)c(=O)c2c1ncn2Cc1ccccc1 | > 724 µM | 427 µM |  |
| N#Cc1c(Cl)nc2ccccc2c1N=[N+]=[N-] | > 200 µM | 0.912 µM |  |
| COc1cccc(C2c3cc4c(cc3OC(N3CCCC3)C2C)OCO4)c1OC (stereo not drawn) | > 200 µM | 1.41 µM |  |
| OCC(O)C(O)C(O)c1nn[nH]n1 (stereo not drawn) |  |  | inactive |
| N#CC12CC(C=O)=C(N)C1(C#N)CC(C=O)=C2N (stereo not drawn) | > 200 µM | 14.8 µM |  |
| Cc1ccc(/C=C2\CCCC\C2=N\O)cc1 |  |  | inactive |
| COC(=O)C1=C(C(=O)NNc2ccccc2)N(c2cccnc2Cl)C(c2ccccc2)=CC1c1ccccc1 (stereo not drawn) | > 200 µM | 22.9 µM |  |
| OCCCSc1ccccc1SCCCO | > 52.5 µM | > 52.5 µM |  |
| O=C(N/N=C1/C(=O)N(c2ccc(Cl)cc2Cl)C(=O)C(=O)C1c1nc2ccccc2o1)c1ccccc1O (stereo not drawn) |  |  | inactive |
| CCc1c(Cc2ccccc2)n(COCCO[Si](C)(C)C(C)(C)C)c(=O)[nH]c1=O | > 34.7 µM | 12.6 µM |  |
| NC(CSS(=O)(=O)CC(N)C(=O)O)C(=O)O (stereo not drawn) |  | 63.1 µM | inactive |
